Consider one molecule from US20240156733A1, “METHODS OF PREPARATION OF NOVEL PAN TLR ANTAGONISTIC LIPOSOMAL-LNP FORMULATIONS AND USES THEREOF” (Celestial Therapeutics Inc., priority 2022, published 2024).

“Also recorded” adds a separate entry of the source.

One assay has as its target T1, CD14 (Homo sapiens, UniProt P08571).
T1 sequence (P08571 20-345): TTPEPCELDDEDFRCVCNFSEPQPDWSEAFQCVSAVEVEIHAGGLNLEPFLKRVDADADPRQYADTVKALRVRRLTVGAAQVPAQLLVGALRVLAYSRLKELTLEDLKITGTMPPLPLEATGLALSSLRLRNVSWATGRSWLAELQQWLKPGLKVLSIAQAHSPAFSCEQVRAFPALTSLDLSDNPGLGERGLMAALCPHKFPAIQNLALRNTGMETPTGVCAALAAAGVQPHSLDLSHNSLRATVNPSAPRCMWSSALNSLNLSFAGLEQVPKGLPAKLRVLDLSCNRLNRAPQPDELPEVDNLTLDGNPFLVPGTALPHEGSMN
The conditions noted are these: prevents association with TLR-4; cited from earlier work.

The subject of assay [1] is RAW264.7 murine macrophage cells. The assay can be described thus: TNFα production with TLR agonists in RAW264.7 macrophages, POPG treatment. In kind it is cell-based. Conditions: TLR agonist stimulated RAW264.7 cells, after 24 h of POPG treatment, FIG. 1. The text has this:
(§1) The Journal of Biological Chemistry 294, 4282 […]; Numata, M. & Voelker, D. R. Anti-inflammatory and anti-viral actions of anionic pulmonary surfactant phospholipids. Biochimica et Biophysica Acta (BBA)—Molecular and CEll Biology of Lipids 1867, 159139 (2022) Mueller, M., Brandenburg, K., Dedrick, R., Schromm, A. B. & Seydel, U. Phospholipids Inhibit Lipopolysaccharide (LPS)-Induced Cell Activation: A Role for LPS-Binding Protein. The Journal of Immunology 174, 1091-1096 (2005); K, K. et al. Anionic pulmonary surfactact phospholipids inhibit inflammatory response from alveolar macrophages and U937 cells by binding the lipopolysaccharide-interacting proteins CD14 and MD-2. J Biol Chem 284, 25488-25500 (2009)]. MD-2 and CD14 are molecular components that are responsible for facilitating the downstream intracellular signaling of TLR4 mediated inflammation. POPG binding to MD-2 and CD-14 will disrupt the downstream TLR signaling and prevent the inflammatory response [Berger, M. de Boer, J. D, van der Poll, T., Sterk, P. J. & van der Zee, J. S. Local coagulation activation following bronchial instillation of house dust mite allergen (HDM) and HDM/Lipopolysaccharide (LPS) in mild asthmatics. European Respiratory Journal 40. (2012)].

The target of the next assay is T2, MD-2 (Homo sapiens, UniProt Q9Y6Y9).
T2 sequence (Q9Y6Y9 19-160): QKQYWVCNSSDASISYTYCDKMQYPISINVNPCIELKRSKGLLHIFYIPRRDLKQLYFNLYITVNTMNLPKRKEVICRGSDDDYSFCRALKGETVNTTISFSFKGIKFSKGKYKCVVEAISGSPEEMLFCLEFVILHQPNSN
Conditions: prevents association with TLR-4; cited from earlier work.

The next assay concerns IL8. The assay can be described thus: Suppression of inflammation mediated by IL8 (data not shown).
Text: as §1

Consider `CCCCCCCC/C=C\CCCCCCCC(=O)O[C@H](COC(=O)CCCCCCCCCCCCCCC)COP(=O)(O)OCC(O)CO` (stereo partly shown) [POPG, palmitoyloleoylphosphatidylglycerol], for which the “binding to CD14” value at CD14 is listed as “preferentially bind”. Further, the TNFα production entry in assay [1] is reported as “reduces TNFα production; also recorded: suppression of inflammation mediated by TNFα”. Also, the “binding to MD-2” value at MD-2 is on record as “preferentially bind”. Further, the “suppression of inflammation mediated by IL8” value in the assay with IL8 is given as “suppression of inflammation”.
